Laboratory results published in patent US12391657B2, “Small molecules that bind and/or modulate differentforms of tau oligomers” (The Board of Regents of the University of Texas System, priority 2019, dated 2025).
Entries after “also recorded” stand apart in the source; their conditions may differ.

Target: T1, recombinant tau oligomers (TauO) (Homo sapiens, UniProt P10636)
T1 construct: made in house
Test: Direct ELISA of recombinant tau oligomers with and without compounds
Format: biochemical
Settings: increased concentration of curcumin
Protocol: ELISA assay was conducted as previously described (Lasagna-Reeves, Castillo-Carranza et al. 2010). […] After washing three times with TBS-T, plates were blocked for 1 hour at 37° C. with 120 μl of 10% non-fat milk in TBS-T. Plates were then washed three times with TBS-T, before probing with 100 μL of primary antibodies for 1 hour at 37° C., T22 (diluted 1:250 in 5% non-fat milk in TBS-T) and Tau 5 (diluted 1:10000 in 5% non-fat milk in TBS-T), respectively . Plates were then washed three times with TBS-T, and probed with 100 μL of horseradish peroxidase-conjugated anti-rabbit or anti-mouse IgG (Promega, Madison, WI) (diluted 1:10000 in 5% non-fat milk in TBS-T). After 1 hour of incubation at 37° C., plates were washed three times with TBS-T and developed with 3, 3, 5, 5-tetramethylbenzidine (TMB-lcomponent substrate, KPL, Gaithersburg, MD). The reaction was stopped by using 100 μL 1M HCl and samples were read at 450 nm using POLARstar OMEGA plate reader. All measurements were performed in triplicate
Compounds were dissolved in ETOH 75%/DMSO (5:1) at a final concentration of 5 mM and diluted in 1× PBS or ddH2O for incubation or toxicity assay (final concentration 5 μM). […]
ELISA assay was conducted as previously described (Lasagna-Reeves, Castillo-Carranza et al. 2010). […] The reaction was stopped using 100 μl of 1M HCl and absorbance was read at 450 nm using POLARstar OMEGA plate reader. […]

T1 sequence (P10636 1-441 isoform P10636-8): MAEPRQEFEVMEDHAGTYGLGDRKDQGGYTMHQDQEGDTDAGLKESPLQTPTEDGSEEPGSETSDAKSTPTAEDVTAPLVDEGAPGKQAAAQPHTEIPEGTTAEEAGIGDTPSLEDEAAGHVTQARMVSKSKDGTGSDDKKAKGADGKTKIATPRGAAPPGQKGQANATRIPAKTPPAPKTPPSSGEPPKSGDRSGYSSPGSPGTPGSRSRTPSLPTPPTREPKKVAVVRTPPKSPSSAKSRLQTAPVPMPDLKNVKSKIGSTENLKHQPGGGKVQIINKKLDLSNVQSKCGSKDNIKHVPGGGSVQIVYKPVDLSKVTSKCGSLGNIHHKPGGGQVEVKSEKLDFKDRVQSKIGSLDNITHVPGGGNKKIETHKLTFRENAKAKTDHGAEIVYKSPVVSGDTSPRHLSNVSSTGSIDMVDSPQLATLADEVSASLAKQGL

SMILES: COc1cc(/C=C/C(=O)CC(=O)/C=C/c2ccc(O)c(OC)c2)ccc1O [curcumin]
- tau oligomer level, T22 immunoreactivity, direct ELISA: significant decrease in T22 immunoreactivity; also recorded: significant decrease in oligomers
